In the NIST ThermoML archive (doi:10.1021/acs.jced.6b00354):
Numbers after ± are expanded uncertainties.

Conditions: 101.33 kPa, Liquid, Vibrating tube method

CC(=O)N(C)C [N,N-dimethylethanamide]
Conditions	mass density [kg/m3]
283.15 K	950.189 ± 0.077
288.15 K	945.589 ± 0.079
293.15 K	940.983 ± 0.081
298.15 K	936.38 ± 0.084
303.15 K	931.762 ± 0.086
308.15 K	927.145 ± 0.088
313.15 K	922.523 ± 0.09
318.15 K	917.893 ± 0.093
